Here are results for one compound from patent US4713238A (GAF Corporation, priority 1986, dated 1987).

For data set [1] the following is noted: cited from earlier work.
Data set [2] is described as follows: physchem. Conditions: water. On the procedure:
The pH was adjusted with a buffer solution to 6 and distilled water was added to bring the solution to 1% concentration. The resulting mixture was agitated on a horizontal shaker at room temperature for 24 hours.
The pH was then adjusted to 6.5 with a concentrated aqueous hydrochloric acid solution to convert the complexed salt to the complexed product of the process and agitation was continued for 2 hours.

Values after ≈ are worked out from the molar mass of the structure shown.

Take `NS(=O)(=O)c1cc2c(cc1Cl)N=CNS2(=O)=O` [chlorothiazide, 6-chloro-7-sulfamyl-1,2,4-benzothiadiazine-1,1-dioxide]: in data set [1] (alkaline aqueous solutions / alkali hydroxides), the “solubility in alkaline aqueous solutions” value is on record as “soluble in alkaline aqueous solutions”. Besides, in data set [1] (pH 6), the water-solubility is on record as 0.5 g. per liter. For the same compound, the thermodynamic solubility at 24 h in data set [2] (pH 6, water) stood at 500 µg/mL (≈ 1690 µM). Besides, the solubility in data set [2] (water solubility of uncomplexed chlorothiazide) was approximately 500 µg/mL (≈ 1690 µM).
